We go through 30 compounds from ChEMBL document CHEMBL4420062, “Tfpi inhibitors and methods of use” (2013).

As a reminder, the IC50 is the midpoint of a concentration-inhibition curve. A low value points to higher potency.

Where a SMILES comes first, the peptide text is derived from it. [ ]: non-standard residue; d: D form. Aib = CC(C)(N)C(=O)O

The first data set addresses T1, Tissue factor pathway inhibitor (Homo sapiens, UniProt P10646).
T1 sequence (P10646 whole entry): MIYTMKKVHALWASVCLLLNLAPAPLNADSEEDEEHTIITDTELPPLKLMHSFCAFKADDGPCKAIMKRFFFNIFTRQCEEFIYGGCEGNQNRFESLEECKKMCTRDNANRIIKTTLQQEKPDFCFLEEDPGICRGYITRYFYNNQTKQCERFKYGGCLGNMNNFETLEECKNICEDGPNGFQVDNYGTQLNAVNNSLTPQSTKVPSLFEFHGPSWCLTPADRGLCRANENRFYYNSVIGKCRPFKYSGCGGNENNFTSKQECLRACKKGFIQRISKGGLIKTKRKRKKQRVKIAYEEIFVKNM
In words: Binding affinity to TFPI (unknown origin) incubated for […] using tracer peptide JBT0131 by screening ELISA.
Details: not given
With `CCCCCCCCCCCCCC(=O)NCCCC[C@H](NC(=O)[C@H]1CCCN1C(=O)[C@H](CCCCN)NC(=O)[C@H](CO)NC(=O)[C@H](CCC(N)=O)NC(=O)[C@H](Cc1ccccc1)NC(=O)CCCCC)C(=O)N[C@H](C(=O)N[C@@H](Cc1cnc[nH]1)C(=O)N[C@H](C(=O)N[C@@H](CC(=O)O)C(=O)N[C@H](C)C(=O)N[C@@H](Cc1ccc(O)cc1)C(=O)N[C@@H](Cc1ccccc1)C(=O)N[C@@H](CCC(=O)O)C(=O)N[C@@H](CCCNC(=N)N)C(=O)N[C@@H](CC(C)C)C(=O)NC(C)(C)C(=O)N[C@@H](C)C(=O)N[C@@H](CCCCN)C(=O)N[C@@H](CC(C)C)C(N)=O)C(C)(C)C)C(C)C`, the IC50 is greater than 0.5 µM.

For `CC(=O)N[C@@H](Cc1ccccc1)C(=O)N[C@@H](CCC(N)=O)C(=O)N[C@@H](CO)C(=O)N[C@@H](CCCCN)C(=O)NCC(=O)N[C@@H](CC(N)=O)C(=O)N[C@H](C(=O)N[C@@H](Cc1ccccc1)C(=O)N[C@H](C(=O)N[C@@H](CC(=O)O)C(=O)NCC(=O)N[C@@H](Cc1ccc(O)cc1)C(=O)N[C@@H](Cc1ccccc1)C(=O)N[C@@H](CCC(=O)O)C(=O)N[C@@H](CCCNC(=N)N)C(=O)N[C@@H](CC(C)C)C(=O)NC(C)(C)C(=O)N[C@@H](C)C(=O)NC(C)(C)C(=O)N[C@@H](CC(C)C)C(N)=O)C(C)C)C(C)C` (Ac-FQSKGNVFVDGYFERL[Aib]A[Aib]L-NH2), the IC50 is greater than 5 µM.

Compound Ac-FQSKLNVFVFGYFERLRAKL-NH2 showed an IC50 greater than 1.67 µM.

The compound Ac-FQSKKFVFVFGYFERLRAKL-NH2 came in with an IC50 greater than 5 µM.

With Ac-FDSKKNVFVFGYFERLRAKL-NH2, the IC50 is greater than 1.67 µM.

Ac-FQSKKNVFVFGYFEGLRAKL-NH2 came in with a concentration for half-maximal inhibition (IC50) greater than 5 µM.

Ac-FQSKKNVFVFGYFERFRAKL-NH2 gave an IC50 greater than 5 µM.

Take `CC(=O)N[C@H](CC(C)C)C(=O)N[C@H](CCCCN)C(=O)N[C@H](C)C(=O)N[C@H](CCCNC(=N)N)C(=O)N[C@H](CC(C)C)C(=O)N[C@H](CCCNC(=N)N)C(=O)N[C@H](CCC(=O)O)C(=O)N[C@H](Cc1ccccc1)C(=O)N[C@H](Cc1ccc(O)cc1)C(=O)NCC(=O)N[C@H](Cc1ccccc1)C(=O)N[C@@H](C(=O)N[C@H](Cc1ccccc1)C(=O)N[C@@H](C(=O)N[C@H](CC(N)=O)C(=O)N[C@H](CCCCN)C(=O)N[C@H](CCCCN)C(=O)N[C@H](CO)C(=O)N[C@H](CCC(N)=O)C(=O)N[C@H](Cc1ccccc1)C(N)=O)C(C)C)C(C)C`: the IC50 is 0.556 to 1.67 µM.

Ac-FQSKKNVFVFGYFERDRAKL-NH2 showed an IC50 greater than 5 µM.

As for Ac-FQSLKNVFVFGYFERLRAKL-NH2, the IC50 is greater than 1.67 µM.

Regarding Ac-FQSKKNVFVFGYFERLFAKL-NH2, the IC50 was greater than 5 µM.

Regarding Ac-FQSKKNYDVFGYFERLRAKL-NH2, the concentration for half-maximal inhibition (IC50) is greater than 5 µM.

As for Ac-FQSKKNVFVFGLFERLRAKL-NH2, the IC50 was greater than 5 µM.

Turning to `CCCCCCCCCCCCCC(=O)NCCCC[C@H](NC(=O)[C@@H](NC(=O)[C@H](Cc1cnc[nH]1)NC(=O)[C@@H](NC(=O)[C@H](CO)NC(=O)[C@H]1CCCN1C(=O)[C@H](CCCCN)NC(=O)[C@H](CO)NC(=O)[C@H](CCC(N)=O)NC(=O)[C@H](Cc1ccccc1)NC(=O)CCCCC)C(C)C)C(C)(C)C)C(=O)N[C@H](C)C(=O)N[C@@H](Cc1ccc(O)cc1)C(=O)N[C@@H](Cc1ccccc1)C(=O)N[C@@H](CCC(=O)O)C(=O)N[C@@H](CCCNC(=N)N)C(=O)N[C@@H](CC(C)C)C(=O)NC(C)(C)C(=O)N[C@@H](C)C(=O)N[C@@H](CCCCN)C(=O)N[C@@H](CC(C)C)C(N)=O`, the IC50 was greater than 0.5 µM.

The compound `CC(=O)N[C@@H](Cc1ccccc1)C(=O)N[C@@H](CCC(N)=O)C(=O)N[C@@H](CO)C(=O)N[C@@H](CCCCN)C(=O)NCC(=O)N[C@@H](CC(N)=O)C(=O)N[C@H](C(=O)N[C@@H](Cc1ccccc1)C(=O)N[C@H](C(=O)N[C@@H](CC(=O)O)C(=O)NCC(=O)N[C@@H](Cc1ccc(O)cc1)C(=O)N[C@@H](Cc1ccccc1)C(=O)N[C@@H](CCC(=O)O)C(=O)NC(C)(C)C(=O)N[C@@H](CC(C)C)C(=O)NC(C)(C)C(=O)N[C@@H](C)C(=O)N[C@@H](CCCCN)C(=O)N[C@@H](CC(C)C)C(N)=O)C(C)C)C(C)C` (Ac-FQSKGNVFVDGYFE[Aib]L[Aib]AKL-NH2) gave a half-maximal inhibitory concentration (IC50) greater than 5 µM.

Compound Ac-FQFKKNVFVFGYFERLRAKL-NH2 returned an IC50 greater than 5 µM.

Turning to Ac-FQSKKNVFVFGYFERLRFKL-NH2, the IC50 is greater than 5 µM.

On to Ac-FQSKKNVFVFGYFERLDAKL-NH2, for which the IC50 was greater than 5 µM.

The compound Ac-FQSKKNVFLFGYFERLRAKL-NH2 had an IC50 greater than 5 µM.

As to `CCCCCCCCCCCCCC(=O)NCCCC[C@H](NC(=O)[C@H](CO)NC(=O)[C@H](CCC(N)=O)NC(=O)[C@H](Cc1ccccc1)NC(=O)CCCCC)C(=O)N1CCC[C@@H]1C(=O)N[C@@H](CO)C(=O)N[C@H](C(=O)N[C@@H](Cc1cnc[nH]1)C(=O)N[C@H](C(=O)N[C@@H](CC(=O)O)C(=O)N[C@H](C)C(=O)N[C@@H](Cc1ccc(O)cc1)C(=O)N[C@@H](Cc1ccccc1)C(=O)N[C@@H](CCC(=O)O)C(=O)N[C@@H](CCCNC(=N)N)C(=O)N[C@@H](CC(C)C)C(=O)NC(C)(C)C(=O)N[C@@H](C)C(=O)N[C@@H](CCCCN)C(=O)N[C@@H](CC(C)C)C(N)=O)C(C)(C)C)C(C)C`, the IC50 is greater than 0.5 µM.

In turn, Ac-FQSKKLVFVFGYFERLRAKL-NH2 gave an IC50 greater than 5 µM.

As for Ac-FQSKKNVFVFLYFERLRAKL-NH2, the IC50 is greater than 5 µM.

Ac-FQSKKNVFGFGYFERLRAKL-NH2 had an IC50 greater than 5 µM.

Ac-FQSKKNVFDFGYFERLRAKL-NH2 gave an IC50 greater than 5 µM.

System in another data set: not listed separately
In words: Stability in human plasma assessed as parent compound remaining after 24 hrs. The conditions noted are these: read-out: Stability. In kind it is ADME, cell-free.
With `CCCCCC(=O)N[C@@H](Cc1ccccc1)C(=O)N[C@@H](CCC(N)=O)C(=O)N[C@@H](CO)C(=O)N[C@@H](CCCCN)C(=O)N1CCC[C@@H]1C(=O)N[C@@H](CC(N)=O)C(=O)N[C@H](C(=O)N[C@@H](Cc1cnc[nH]1)C(=O)N[C@H](C(=O)N[C@@H](CC(=O)O)C(=O)N[C@H](C)C(=O)N[C@@H](Cc1ccc(O)cc1)C(=O)N[C@@H](Cc1ccccc1)C(=O)N[C@@H](CCC(=O)O)C(=O)N[C@@H](CCCNC(=N)N)C(=O)N[C@@H](CC(C)C)C(=O)NC(C)(C)C(=O)N[C@@H](C)C(=O)N[C@@H](CCCCN)C(=O)N[C@@H](CC(C)C)C(N)=O)C(C)(C)C)C(C)C`, the remaining at 24 h turned out to be 97.4%.

System in another data set: not listed separately
As to the kind of experiment: Stability in mouse plasma assessed as parent compound remaining after 24 hrs. The conditions noted are these: read-out: Stability. In kind it is ADME, cell-free.
As for `CCCCCC(=O)N[C@@H](Cc1ccccc1)C(=O)N[C@@H](CCC(N)=O)C(=O)N[C@@H](CO)C(=O)N[C@@H](CCCCN)C(=O)N1CCC[C@@H]1C(=O)N[C@@H](CC(N)=O)C(=O)N[C@H](C(=O)N[C@@H](Cc1cnc[nH]1)C(=O)N[C@H](C(=O)N[C@@H](CC(=O)O)C(=O)N[C@H](C)C(=O)N[C@@H](Cc1ccc(O)cc1)C(=O)N[C@@H](Cc1ccccc1)C(=O)N[C@@H](CCC(=O)O)C(=O)N[C@@H](CCCNC(=N)N)C(=O)N[C@@H](CC(C)C)C(=O)NC(C)(C)C(=O)N[C@@H](C)C(=O)N[C@@H](CCCCN)C(=O)N[C@@H](CC(C)C)C(N)=O)C(C)(C)C)C(C)C`, the remaining at 24 h was determined as 39.9%.

With `CC(=O)N[C@@H](Cc1ccccc1)C(=O)N[C@@H](CCC(N)=O)C(=O)N[C@@H](CO)C(=O)N[C@@H](CCCCN)C(=O)N1CCC[C@@H]1C(=O)N[C@@H](CC(N)=O)C(=O)N[C@H](C(=O)N[C@@H](Cc1cnc[nH]1)C(=O)N[C@H](C(=O)N[C@@H](CC(=O)O)C(=O)N[C@H](C)C(=O)N[C@@H](Cc1ccc(O)cc1)C(=O)N[C@@H](Cc1ccccc1)C(=O)N[C@@H](CCC(=O)O)C(=O)N[C@@H](CCCNC(=N)N)C(=O)N[C@H]1CCSSCC[C@@H](C(N)=O)NC(=O)[C@H](CCCCN)NC(=O)[C@H](C)NC(=O)C(C)(C)NC1=O)C(C)(C)C)C(C)C`, the remaining at 24 h stood at 65.5%.

For the compound `CC(=O)N[C@@H](Cc1ccccc1)C(=O)N[C@@H](CCC(N)=O)C(=O)N[C@@H](CO)C(=O)N[C@@H](CCCCN)C(=O)N1CCC[C@@H]1C(=O)N[C@@H](CC(N)=O)C(=O)N[C@H](C(=O)N[C@@H](Cc1cnc[nH]1)C(=O)N[C@H](C(=O)N[C@@H](CC(=O)O)C(=O)NCC(=O)N[C@@H](Cc1ccc(O)cc1)C(=O)N[C@@H](Cc1cccc2ccccc12)C(=O)N[C@@H](CCC(=O)O)C(=O)N[C@@H](CCCNC(=N)N)C(=O)N[C@@H](CC(C)C)C(=O)NC(C)(C)C(=O)N[C@@H](C)C(=O)N[C@@H](CCCCN)C(=O)N[C@@H](CC(C)C)C(N)=O)C(C)C)C(C)C`, the remaining at 24 h came out at 6.3%.

Turning to `CC(=O)N[C@@H](Cc1ccccc1)C(=O)N[C@@H](CCC(N)=O)C(=O)N[C@@H](CO)C(=O)N[C@@H](CCCCN)C(=O)N1CCC[C@@H]1C(=O)N[C@@H](CC(N)=O)C(=O)N[C@H](C(=O)N[C@@H](Cc1cnc[nH]1)C(=O)N[C@H](C(=O)N[C@@H](CC(=O)O)C(=O)NCC(=O)N[C@@H](Cc1ccc(O)cc1)C(=O)N[C@@H](Cc1ccccc1)C(=O)N[C@@H](CCC(=O)O)C(=O)N[C@@H](CCCNC(=N)N)C(=O)N[C@@H](CC(C)C)C(=O)NC(C)(C)C(=O)N[C@@H](C)C(=O)N[C@@H](CCCCN)C(=O)N[C@@H](CC(C)C)C(N)=O)C(C)C)C1CCCCC1`, the remaining at 24 h stood at 4.1%.

Regarding `CCC(CC)(NC(=O)[C@H](CC(C)C)NC(=O)[C@H](CCCNC(=N)N)NC(=O)[C@H](CCC(=O)O)NC(=O)[C@H](Cc1ccccc1)NC(=O)[C@H](Cc1ccc(O)cc1)NC(=O)[C@@H](C)NC(=O)[C@H](CC(=O)O)NC(=O)[C@@H](NC(=O)[C@H](Cc1cnc[nH]1)NC(=O)[C@@H](NC(=O)[C@H](CC(N)=O)NC(=O)[C@H]1CCCN1C(=O)[C@H](CCCCN)NC(=O)[C@H](CO)NC(=O)[C@H](CCC(N)=O)NC(=O)[C@H](Cc1ccccc1)NC(C)=O)C(C)C)C(C)(C)C)C(=O)N[C@@H](C)C(=O)N[C@@H](CCCCN)C(=O)N[C@@H](CC(C)C)C(N)=O`, the remaining at 24 h came out at 62.9%.

With `COc1ccc(C[C@H](NC(=O)CNC(=O)[C@H](CC(=O)O)NC(=O)[C@@H](NC(=O)[C@H](Cc2cnc[nH]2)NC(=O)[C@@H](NC(=O)[C@H](CC(N)=O)NC(=O)[C@H]2CCCN2C(=O)[C@H](CCCCN)NC(=O)[C@H](CO)NC(=O)[C@H](CCC(N)=O)NC(=O)[C@H](Cc2ccccc2)NC(C)=O)C(C)C)C(C)C)C(=O)N[C@@H](Cc2ccccc2)C(=O)N[C@@H](CCC(=O)O)C(=O)N[C@@H](CCCNC(=N)N)C(=O)N[C@@H](CC(C)C)C(=O)NC(C)(C)C(=O)N[C@@H](C)C(=O)N[C@@H](CCCCN)C(=O)N[C@@H](CC(C)C)C(N)=O)cc1`, the remaining at 24 h came out at 7.3%.
